Columns and labels:
[1] = molecular target: T1, recombinant SNAP-Tag protein (Homo sapiens, UniProt P16455, A127T/A154D/C150Q/C62A/E30R/G131K/G132T/G153L/K125A/K32I/L33F/M134L/N157G/Q115S/Q116H/R128A/R135S/S151G/S152D/S159E); test: In vitro photocleavage assay (in-gel fluorescence); format: biochemical; conditions: recombinant SNAP-Tag labeled with probe, 0-10 minutes irradiation
T1 construct: His6 (N)
T1 sequence (P16455 1-182 E30R/K32I/L33F/C62A/Q115S/Q116H/K125A/A127T/R128A/G131K/G132T/M134L/R135S/C150Q/S151G/S152D/G153L/A154D/N157G/S159E): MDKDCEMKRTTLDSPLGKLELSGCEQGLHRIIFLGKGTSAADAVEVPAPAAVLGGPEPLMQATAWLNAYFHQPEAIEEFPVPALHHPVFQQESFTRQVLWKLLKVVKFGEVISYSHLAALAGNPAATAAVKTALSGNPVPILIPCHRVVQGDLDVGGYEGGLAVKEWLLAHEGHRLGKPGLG
Protocol: In vitro photocleavage assay: Recombinant purified His6-SNAP-Tag (20 μg) was incubated in 200 μL DPBS containing 5 μM PP1 for 1 hour at 37° C. Afterward, the reaction was divided into six 30 μL aliquots, placed on ice, and irradiated with 365 nm light using a SPECTROLINKER™ XL-1500a UV crosslinker (Spectroline, Spectronics, Corporation, Westbury, N.Y., United States of America). Samples were successively removed from irradiation after 0, 0.5, 1, 2.5, 5, 10 minutes of irradiation, diluted with loading buffer, and run on SDS-PAGE gel. Photocleavage was judged by in-gel fluorescence visualized using a ChemiDoc imaging system (Bio-Rad Laboratories, Hercules, Calif., United States of America) scanning for fluorescein.
A first generation P3 chemical proteomic method was designed to facilitate several activities, including: 1) specific probe labeling of POIs in live cells; 2) spatial and temporal control of probe photoactivation and proximal labeling; 3) subsequent enrichment and identification of labeled proteins after cell lysis. […] The BnG targeting element is connected to dual photoreactive elements, a central substituted nitroveratryl carbamate, and a tethered diazirine, which upon irradiation with 365 nm light will simultaneously trigger cleavage and diffusion of the probe away from the SNAP-Tag-POI, as well as unmasking of a highly reactive carbene, respectively. […]

[2] = molecular target: T2, SNAP-FLAG/α-FLAG antibody complex (Homo sapiens, UniProt P16455, A127T/A154D/C150Q/C62A/E30R/G131K/G132T/G153L/K125A/K32I/L33F/M134L/N157G/Q115S/Q116H/R128A/R135S/S151G/S152D/S159E); test: Proximity-labeling assay in cell lysate (anti-biotin / anti-mouse Western blot); format: biochemical; conditions: 500 nM probe
T2 construct: host or cells: clarified lysate of HEK293T cells transiently or stably expressing SnapFlag
T2 sequence (P16455 1-182 E30R/K32I/L33F/C62A/Q115S/Q116H/K125A/A127T/R128A/G131K/G132T/M134L/R135S/C150Q/S151G/S152D/G153L/A154D/N157G/S159E limits assumed): T1 sequence (P16455 1-182 E30R/K32I/L33F/C62A/Q115S/Q116H/K125A/A127T/R128A/G131K/G132T/M134L/R135S/C150Q/S151G/S152D/G153L/A154D/N157G/S159E)
Protocol: Proximity-labeling assays: Clarified cell lysate from HEK293T cells either transiently (see FIG. 4B) or stably (see FIG. 4C) expressing SNAP-Tag (NEB #N9183S; New England Biolabs, Ipswich, Mass., United States of America) or SnapFlag was normalized to 1 mg/mL and 250 μL aliquots incubated in a microcentrifuge tube with either 500 nM of PP1. PP2, or DMSO for 1 hour at 37° C. Washed anti-FLAG M2 affinity gel, 40 μL of a 50% slurry, was transferred to each reaction in 750 μL of DPBS and the resultant suspension left to rotate overnight at 4° C. (Sigma #A2220; Sigma-Aldrich, St. Louis, Mo., United States of America). Samples were then spun down at 4000×g, supernatant aspirated, and the resin washed with 1M urea in DPBS (1 mL×8) followed by DPBS (1 mL). After being resuspended in 100 μL of DPBS, the samples were placed on ice where they were irradiated with 365 nm light for 10 minutes (SPECTROLINKER™ XL-1500a UV crosslinker, Spectronics Corporation, Westbury, N.Y., United States of America). Once irradiated, the beads were washed with 100 mM pH 3.5 glycine buffer (100 μL×2) and DPBS (1 mL). To elute the remaining SNAP-FLAG and resin-bound FLAG-antibody the beads were boiled for 5 minutes at 95° C. in 20 μL 4×-loading buffer containing 8% SDS and 400 mM DTT. After which, 60 μL of DPBS was added and the suspension boiled at 95° C. for an additional 5 minutes. The samples were then run on SDS-PAGE gel and transferred to nitrocellulose where they were stained with anti-mouse IR dye (Li-cor #926-68072; Li-cor Biosciences, Lincoln, Nebr., United States of America) and streptavidin IR dye (Li-cor #926-32230; Li-cor Biosciences, Lincoln, Nebr., United States of America). Bands corresponding to biotinylated proteins and the FLAG antibody were visualized using an Odyssey infrared imager (Li-cor Biosciences, Lincoln, Nebr., United States of America).
To study if proximal protein interactors could be labeled in response to the dual photoactivation of PP1 in vitro, the interaction between SNAP-FLAG protein and an α-FLAG monoclonal antibody (mAb) was examined in cell lysate. In this assay, proximal biotinylation of both heavy and light chains of the antibody was expected, as well as self-labeling of the SNAP-FLAG protein, under conditions where the protein complex is formed and the PP1 probe is photoactivated. To test this hypothesis in the presence and absence of the protein-protein complex, SNAP protein that contained or lacked the FLAG epitope was treated with PP1 probe, followed by incubation with α-FLAG mAb, bead-based pulldown of the complexes, and subsequent photoactivation. […] The requirement for photoactivation of PP1, as well as a related probe PP2 (see FIG. 6) was tested by forming the SNAP-FLAG/α-FLAG complexes, and then comparing protein biotinylation with or without irradiation.
To study if proximal protein interactors could be labeled in response to the dual photoactivation of AC1 (see FIG. 12A) in vitro, the interaction between SNAP-FLAG protein and an α-FLAG monoclonal antibody (mAb) was examined in cell lysate. Briefly, 250 μL aliquots of cell lysate (HEK293T, SNAP-Flag) was incubated in a microcentrifuge tube with either 500 nM of photoprobe, or DMSO for 1 hour at 37° C. Washed anti-FLAG M2 affinity gel, 40 μL of a 50% slurry, was transferred to each reaction in 750 μL of DPBS and the resultant suspension left to rotate overnight at 4° C. (Sigma #A2220; Sigma-Aldrich, St. Louis, Mo., United States of America). Samples were then spun down at 4000×g, supernatant aspirated, and the resin washed with 1M urea in DPBS (1 mL×8) followed by DPBS (1 mL). After being resuspended in 250 μL of DPBS, the +UV samples were placed on ice where they were irradiated with 365 nm light for 10 minutes (SPECTROLINKER™ XL-1500a UV crosslinker, Spectronics Corporation, Westbury, N.Y., United States of America). Once irradiated, the beads were washed with 1 M Urea (1 mL×2) and DPBS (1 mL×2). […]

COc1cc(C(C)OC(=O)NCCNC(=S)Nc2ccc3c(c2)C2(OC3=O)c3ccc(O)cc3Oc3cc(O)ccc32)c([N+](=O)[O-])cc1OCCCC(=O)NCc1ccc(COc2nc(N)nc3[nH]cnc23)cc1 (stereo not drawn) [PF-BnG]
Fluorescence of labeled protein after irradiation at 365 nm (photocleavage) [1]: complete loss of fluorescence within minutes

COc1cc(C(C)OC(=O)NCCCCC(NC(=O)CCC2(C)N=N2)C(=O)NCCNC(=O)CCCCC2SCC3NC(=O)NC32)c([N+](=O)[O-])cc1OCCCC(=O)NCCOCCOC(=O)NCc1ccc(COc2nc(N)nc3[nH]cnc23)cc1 (stereo not drawn) [PP2]
Proximal labeling of heavy and light chains upon irradiation ([2]; 365 nm light 10 minutes (FIG. 4C, FIG. 12B)): a discrete biotinylated band was formed on both heavy and light chains | Proximal labeling of heavy/light chain without irradiation ([2]; not exposed to 365 nm light (FIG. 4C)): No proximal labeling
